Patent publication US20080249074A1, “Composition for the Transdermal Administration of Physiologically Active Agents” (LABORATORIOS BELMAC, S.A., priority 2005, published 2008)

Test system: carrageenan-induced rat paw plantar edema
Assay: Anti-inflammatory effect of oleuropein compositions in the form of an oil
Format: in vivo
Details: for increase % vs. V0 / inhibition % vs. blank-vehicle / increase vs. V0 % / inhibition vs. blank-vehicle %: topical; for increase % vs. V0 / inhibition % vs. blank-vehicle: V1, 60 minutes; for increase vs. V0 % / inhibition vs. blank-vehicle %: V2, 180 minutes
Procedure: The test was performed according to the method disclosed by Winter et al. (Proc. Soc. Exp. Biol. Med. 1962; vol. 111, pp. 544-547), adapted to the rat paw. The method consisted in the injection of 100 μl of a 0.75% carrageenan solution in physiological saline in the plantar face of the left hind paw of the rat. The volume of the paws was determined by a plethysmometer just before the injection of the carrageenan (V0), 60 minutes after the injection (V1) and 180 minutes (V2) after the injection.
The tested substances were administered topically according to a modification of the method disclosed by Mass6 et al. (Rev. Farmacol. Clin. Exp. 1990, vol. 7, p. 85), following a blind and randomized trial. 100 μl of the substance to be tested were applied over the paw of the animal, spread over the whole surface of the paw, massaging until the complete absorption. The application was repeated 2 times, namely 18 h before the injection of carrageenan and 60 minutes before said injection. Simultaneously to the application, 30 ml/kg of distilled water were administered orally.
Using the method described in Example 7, the anti-inflammatory effect of the four compositions in the form of an oil prepared according to Example 1, which comprised a 0.1%, 0.2%, 0.4%, and 0.8% of oleuropein w/w, respectively, was studied. The blank-vehicle was prepared by the same method as the compositions tested excluding the active ingredient.
The mean±S.E.M. of the volumes of the animal paws was calculated for the three observation periods V0, V1 and V2. The average values of every experimental group were used for the determination of the average increase of the volume of the paws as an effect of the injection of carrageenan during the periods of observation V1 and V2 with regard to the initial volume (V0), and, then, the percentages of the variation of said values with regard to the blank-vehicle group were determined. Finally, the 50% Effective Concentration (EC 50) was calculated through a linear regression optimized by the least squares method. The evaluation of the statistic signification of the variation was performed by the Student's t-test for independent data using a p<0.05 level to establish the difference criteria. […] However, as estimation, it is obtained that EC 50 of the oleuropein composition in the form of an oil is about 0.7%.

C/C=C1/[C@H](O[C@@H]2O[C@H](CO)[C@@H](O)[C@H](O)[C@H]2O)OC=C(C(=O)OC)[C@H]1CC(=O)OCCc1ccc(O)c(O)c1 [Oleuropein, oleuropein]
increase % vs. V0 (0.1% (w/w) oleuropein oil): 27.39% | inhibition % vs. blank-vehicle (0.1% (w/w) oleuropein oil): 14.62% | increase vs. V0 % (0.1% (w/w) oleuropein oil): 43.59% | inhibition vs. blank-vehicle % (0.1% (w/w) oleuropein oil): 12.38% | increase % vs. V0 (0.2% (w/w) oleuropein oil): 24.75% | inhibition % vs. blank-vehicle (0.2% (w/w) oleuropein oil): 22.86% | increase vs. V0 % (0.2% (w/w) oleuropein oil): 36.80% | inhibition vs. blank-vehicle % (0.2% (w/w) oleuropein oil): 26.03% | increase % vs. V0 (0.4% (w/w) oleuropein oil): 18.55% | inhibition % vs. blank-vehicle (0.4% (w/w) oleuropein oil): 42.19% | increase vs. V0 % (0.4% (w/w) oleuropein oil): 26.80% | inhibition vs. blank-vehicle % (0.4% (w/w) oleuropein oil): 46.13% | increase % vs. V0 (0.8% (w/w) oleuropein oil): 16.13% | inhibition % vs. blank-vehicle (0.8% (w/w) oleuropein oil): 49.73% | increase vs. V0 % (0.8% (w/w) oleuropein oil): 25.71% | inhibition vs. blank-vehicle % (0.8% (w/w) oleuropein oil): 48.31% | maximum estimated effect, inhibition (oily composition of oleuropein): about 50% | concentration up to which the effect is lineal (oleuropein concentration in the oil composition): about 0.4% | 50% Effective Concentration (EC 50) (oleuropein concentration in the oil composition, linear regression by least squares, estimation): about 0.7%
